pIC50: −log10 of the molar value.
Experiments:
YePEPT [1] = target: T1, YePEPT (Yersinia enterocolitica, UniProt A0A2R9TD79, K314A); assay: co-crystal structure at […] Å; also thermal shift; IC50 from [3H]Ala-Ala uptake in E. coli cells; format: cell-based
T1 construct: gene YEP4_02370; YePEPT-K314A, C-terminal HRV3C site and His10 tag (cleaved for crystallisation)
T1 sequence (A0A2R9TD79 1-511 K314A): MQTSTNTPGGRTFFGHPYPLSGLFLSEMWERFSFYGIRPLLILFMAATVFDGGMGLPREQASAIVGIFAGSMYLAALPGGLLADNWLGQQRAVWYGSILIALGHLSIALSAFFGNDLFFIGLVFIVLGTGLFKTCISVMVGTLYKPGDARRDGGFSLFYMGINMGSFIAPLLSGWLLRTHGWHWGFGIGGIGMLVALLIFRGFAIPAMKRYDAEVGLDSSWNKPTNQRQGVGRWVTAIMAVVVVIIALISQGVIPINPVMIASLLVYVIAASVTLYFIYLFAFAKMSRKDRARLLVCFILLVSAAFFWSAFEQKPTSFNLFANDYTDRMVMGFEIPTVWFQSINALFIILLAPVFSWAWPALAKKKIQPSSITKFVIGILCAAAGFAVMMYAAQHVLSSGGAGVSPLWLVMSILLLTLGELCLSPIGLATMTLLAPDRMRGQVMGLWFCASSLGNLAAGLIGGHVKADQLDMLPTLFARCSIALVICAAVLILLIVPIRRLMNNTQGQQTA

YePEPT [2] = target: T2, YePEPT (Yersinia enterocolitica, UniProt A0A2R9TD79, K314A/S412A); assay: label-free DSF thermal shift at […] LZNV (no Kd); format: binding
T2 construct: gene YEP4_02370; YePEPT^K314A-S412A, detergent-purified, His-tagged

YePEPT [3] = target: T3, YePEPT (Yersinia enterocolitica, UniProt A0A2R9TD79, K314Q/P315G); assay: label-free DSF thermal shift at […] LZNV (no Kd); format: binding
T3 construct: gene YEP4_02370; YePEPT^K314Q-P315G, detergent-purified, His-tagged

[4] = system: C[C@H](N)C(=O)N[C@@H](C)C(=O)O; assay: [3H]Ala-Ala uptake kinetics (Km) in E. coli cells overexpressing the transporter; format: cell-based, Yersinia enterocolitica

Molecule	pIC50 (YePEPT [1])	label-free DSF thermal shift at 200-800 μM LZNV (no Kd) (YePEPT [2])	label-free DSF thermal shift at 200-800 μM LZNV (no Kd) (YePEPT [3])	Km [4]
CC(C)[C@H](NC(=O)[C@@H](N)CCCCNC(=O)OCc1ccc([N+](=O)[O-])cc1)C(=O)O [LZNV, Lys[Z(NO2)]-Val]	5.12	YePEPT^K314A-S412A still showed a strong dose-dependent stabilisation by LZNV	This variant shows a concentration-dependent stabilisation by LZNV similar to YePEPT^K314A	
YePEPT (Yersinia enterocolitica subsp. palearctica YE-P4; K314A)				57.3 µM
